Publication PMC7425579 (Journal of medicinal chemistry, 2020)

What was measured:
HIV-1ATV-5 μM = assay type: cell-based; settings: MT-4 cells
HIV-1DRV^RP30 = assay type: cell-based; settings: HIV-1DRV^RP30, MT-4 cells
[1] = test system: highly drug-resistant HIV-1 variants; test: Antiviral activity against the panel of highly drug-resistant HIV-1 variants; assay type: cell-based; settings: for ability to block replication of highly PI-resistant HIV-1 variants (in words): panel of Table 3
HIV-1 protease = HIV-1 protease (Human immunodeficiency virus type 1 group M subtype B, UniProt P04585); test: HIV-1 protease inhibition assay; assay type: biochemical; settings: compared to 5b with the enantiomeric P2 ligand
HIV-1LAI = test: Antiviral assay in MT-2 human T-lymphoid cells exposed to HIV-1LAI; assay type: cell-based; settings: MT-2 cells

COC(=O)N[C@H](C(=O)N[C@@H](Cc1ccccc1)[C@@H](O)CN(Cc1ccc(-c2ccccn2)cc1)NC(=O)[C@@H](NC(=O)OC)C(C)(C)C)C(C)(C)C [ATV, atazanavir]
fold-change in IC50 compared to wild-type HIV-1NL4-3 (HIV-1ATV-5 μM): > 250 fold | fold-change in IC50 compared to wild-type HIV-1NL4-3 (HIV-1DRV^RP30): > 250 fold | ability to block replication of highly PI-resistant HIV-1 variants (in words) [1]: unable to suppress the replication

CC(C)CN(C[C@@H](O)[C@H](Cc1ccccc1)NC(=O)OC1C[C@@H]2CO[C@@H]3OC1C[C@H]23)S(=O)(=O)c1ccc2nc(NC3CC3)sc2c1 (stereo partly drawn) [inhibitor 4b, (1R,3aS,7aR)-Octahydro-1,6-epoxyisobenzofuran-5-yl((2S,3R)-4-((2-(Cyclopropylamino)-N-isobutylbenzo[d]-thiazole)-6-sulfonamido)-3-hydroxy-1-phenylbutan-2-yl)-carbamate]
fold better enzyme Ki than inhibitor 5b (HIV-1 protease): ~10 fold

CC(C)CN(C[C@@H](O)[C@H](Cc1cc(F)cc(F)c1)NC(=O)OC1C[C@@H]2CO[C@@H]3OC1C[C@H]23)S(=O)(=O)c1ccc2nc(NC3CC3)sc2c1 (stereo partly drawn) [inhibitor 4d, (1R,3aS,7aR)-Octahydro-1,6-epoxyisobenzofuran-5-yl((2S,3R)-4-((2-(Cyclopropylamino)-N-isobutylbenzo[d]-thiazole)-6-sulfonamido)-1-(3,5-difluorophenyl)-3-hydroxybutan-2-yl)carbamate]
IC50 ([1]; Human immunodeficiency virus 1, read-out: antiviral activity against highly drug-resistant HIV-1 variants): 0.21 to 4.5 nM

CC(C)CN(C[C@@H](O)[C@H](Cc1ccc(F)cc1)NC(=O)OC1C[C@@H]2CO[C@@H]3OC1C[C@H]23)S(=O)(=O)c1ccc2nc(NC3CC3)sc2c1 (stereo partly drawn) [inhibitor 4f, (1R,3aS,7aR)-Octahydro-1,6-epoxyisobenzofuran-5-yl((2S,3R)-4-((2-(Cyclopropylamino)-N-isobutylbenzo[d]-thiazole)-6-sulfonamido)-1-(4-fluorophenyl)-3-hydroxybutan-2-yl)carbamate]
fold improvement of antiviral activity compared to inhibitor 4b (HIV-1LAI): over 7 fold

CC(C)CN(C[C@@H](O)[C@H](Cc1ccccc1)NC(=O)O[C@H]1C[C@H]2CO[C@H]3OC1C[C@@H]23)S(=O)(=O)c1ccc2nc(NC(C)C)oc2c1 [inhibitor 5c, (1S,3aR,5S,7aS)-Octahydro-1,6-epoxyisobenzofuran-5-yl((2S,3R)-3-Hydroxy-4-((N-isobutyl-2-(isopropylamino)benzo-[d]oxazole)-6-sulfonamido)-1-phenylbutan-2-yl)carbamate]
fold improvement of antiviral activity compared to inhibitor 4c (HIV-1LAI): over 5 fold | ability to block replication of highly PI-resistant HIV-1 variants (in words) [1]: failed to block replication

CC(C)CN(C[C@@H](O)[C@H](Cc1cc(F)cc(F)c1)NC(=O)O[C@H]1C[C@H]2CO[C@H]3OC1C[C@@H]23)S(=O)(=O)c1ccc2nc(NC3CC3)sc2c1 [inhibitor 5d, (1S,3aR,5S,7aS)-Octahydro-1,6-epoxyisobenzofuran-5-yl((2S,3R)-4-((2-(Cyclopropylamino)-N-isobutylbenzo[d]-thiazole)-6-sulfonamido)-1-(3,5-difluorophenyl)-3-hydroxy-butan-2-yl)carbamate]
fold reduction of antiviral activity compared to inhibitor 4d (HIV-1LAI): ~25 fold

CC(C)CN(C[C@@H](O)[C@H](Cc1ccc(F)cc1)NC(=O)O[C@H]1C[C@H]2CO[C@H]3OC1C[C@@H]23)S(=O)(=O)c1ccc2nc(NC3CC3)sc2c1 [inhibitor 5f, (1S,3aR,5S,7aS)-Octahydro-1,6-epoxyisobenzofuran-5-yl((2S,3R)-4-((2-(Cyclopropylamino)-N-isobutylbenzo[d]-thiazole)-6-sulfonamido)-1-(4-fluorophenyl)-3-hydroxybutan-2-yl)carbamate]
fold improvement of antiviral activity compared to inhibitor 5b (HIV-1LAI): over 4 fold
